16 compounds from patent publication US20260167623A1 (NIKANG THERAPEUTICS, INC., priority 2022, published 2026) can be followed below.

Molecules are shown by their SMILES.

The target in this assay is T1, CDK2 (Homo sapiens, UniProt P24941).
T1 construct: High-Throughput Measurement of Cellular Endogenous CDK2; endogenous in cells; host or cells: OVCAR3
Nature of the assay: Inhibition of CDK2: phospho-Rb (S807/811) HTRF measurement in OVCAR3 cells, 24 h. The class given is cell-based. Particulars: 24 h compound treatment, read-out: pRB_OVCAR3_24h. Here is the method: Inhibition of CDK2: Phospho-R^b Measurement in Cells
Phosphorylation of RB protein at S807/811 were measured using HTRF phospho-RB cellular kits (Cat #64RBS807PEG) from Cisbio.
On Day 1, OVCAR3 (CDK2 dependent cell line) cells were seeded into 96-well tissue-culture treated plates at 20,000 cells/well in 200 μL and incubated overnight at 37° C. in CO2 atmosphere. On Day 2, the cells were treated with test compounds at concentrations from 0.3 to 10,000 nM using HP D300 digital dispenser. Twenty-four hours after compound treatment, cell culture media is removed by flicking the plate and tapping the plate against clean paper towel. 30 μL 1× lysis buffer was supplemented from the kit was added to each well and the plate was incubated at room temperature on shaker for 30 min. After homogenization by pipetting up and down, 8 μL cell lysate from 96-well cell culture plate was transferred to 384-well small volume white detection plate. 2 μL premixed detection solution was added and the plate was covered with sealer. To prepare the detection solution, d2 conjugated-phospho-RB antibody and Eu-cryptate conjugated phosphor-RB antibody were diluted into detection buffer following manufacturer's instruction. Detection plates were incubated for 4 h at room temperature and read on ClarioStar (BMG Labtech) in TR-FRET mode (665 nM and 620 nM). The TR-FRET ratio (665 nM/620 nM) was plotted against the compound concentration and normalized to DMSO controls. Half maximal inhibition concentration (IC50) values were calculated with a four-parameter logistic fit using GraphPad Prism (version 8; La Jolla, CA).
For orientation: TR-FRET usually uses a lanthanide donor and a delayed reading to cut background.
Regarding `Cn1nc(N2CCC(=O)NC2=O)c2ccc(N3CC4CC(C3)N4CC3CCN(c4cccc(S(=O)(=O)N5CCC(Nc6ncc(Cl)cn6)CC5)c4)CC3)cc21` [Example 125, 1-(6-(6-((1-(3-((4-((5-chloropyrimidin-2-yl)amino)piperidin-1-yl)sulfonyl)phenyl)-piperidin-4-yl)methyl)-3,6-diazabicyclo-[3.1.1]heptan-3-yl)-1-methyl-1H-indazol-3-yl)dihydropyrimidine-2,4(1H,3H)-dione], the IC50 was in the range of 500 to 2500 nM.

On to `Cn1nc(N2CCC(=O)NC2=O)c2ccc(C3CCN(CC4CCN(c5cccc(S(=O)(=O)N6CCC(Nc7ncc(C(F)(F)F)cn7)CC6)c5)CC4)CC3(F)F)cc21` (stereo not shown) [Example 90, 1-(6-(3,3-difluoro-1-((1-(3-((4-((5-(trifluoromethyl)pyrimidin-2-yl)amino)-piperidin-1-yl)sulfonyl)phenyl)piperidin-4-yl)methyl)piperidin-4-yl)-1-methyl-1H-indazol-3-yl)dihydropyrimidine-2,4(1H,3H)-dione], for which the IC50 fell in the range of 100 to 500 nM.

For `Cn1nc(N2CCC(=O)NC2=O)c2cc(F)c(N3CCN(CC4CCN(c5cccc(S(=O)(=O)N6CCC(Nc7ncc(Cl)cn7)CC6)c5)CC4)CC3)cc21` [Example 111, 1-(6-(4-((1-(3-((4-((5-chloropyrimidin-2-yl)amino)piperidin-1-yl)sulfonyl)phenyl)-piperidin-4-yl)methyl)piperazin-1-yl)-5-fluoro-1-methyl-1H-indazol-3-yl)dihydropyrimidine-2,4(1H,3H)-dione], the IC50 fell in the range of 500 to 2500 nM.

As for `Cn1nc(-n2ccc(=O)[nH]c2=O)c2ccc(C3CCN(CC4CCN(c5cccc(S(=O)(=O)N6CCC(Nc7ncc(Cl)cn7)CC6)c5)CC4)CC3)cc21` [Example 210, 1-(6-(1-((1-(3-((4-((5-chloropyrimidin-2-yl)amino)piperidin-1-yl)sulfonyl)phenyl)piperidin-4-yl)methyl)piperidin-4-yl)-1-methyl-1H-indazol-3-yl)pyrimidine-2,4(1H,3H)-dione], the IC50 was in the range of 100 to 500 nM.

In the case of `Cn1nc(N2CCC(=O)NC2=O)c2ccc(C3CCN(CC4CCN(c5cc(C(F)(F)F)cc(S(=O)(=O)N6CCC(Nc7ncc(Cl)cn7)CC6)c5)CC4)CC3)cc21` [Example 170, 1-(6-(1-((1-(3-((4-((5-chloropyrimidin-2-yl)amino)piperidin-1-yl)sulfonyl)-5-(trifluoromethyl)phenyl)piperidin-4-yl)methyl)piperidin-4-yl)-1-methyl-1H-indazol-3-yl)dihydropyrimidine-2,4(1H,3H)-dione], the IC50 was in the range of 500 to 2500 nM.

For the compound `Cn1nc(N2CCC(=O)NC2=O)c2ccc(C3=CCN(CC4CCN(c5cccc(S(=O)(=O)N6CCC(Nc7ncc(Cl)cn7)CC6)c5)CC4)CC3)cc21` [Example 134, 1-(6-(1-((1-(3-((4-((5-chloropyrimidin-2-yl)amino)piperidin-1-yl)sulfonyl)phenyl)-piperidin-4-yl)methyl)-1,2,3,6-tetrahydropyridin-4-yl)-1-methyl-1H-indazol-3-yl)dihydropyrimidine-2,4(1H,3H)-dione], the IC50 lay in the range of 100 to 500 nM.

Regarding `Cn1nc(N2CCC(=O)NC2=O)c2ccc(C3CCN(CCCC4CCN(S(=O)(=O)N5CCC(Nc6ncc(C(F)(F)F)cn6)CC5)CC4)CC3)cc21` [Example 36], the IC50 was 500 to 2500 nM.

As to `Cn1nc(N2CCC(=O)NC2=O)c2ccc(N3CCN(CC4CCN(c5cccc(S(=O)(=O)N6CCC(Nc7ncc(C(F)(F)F)cn7)CC6)c5)CC4)CC3)cc21` [Example 51, 1-(1-methyl-6-(4-((1-(3-((4-((5-(trifluoro-methyl)pyrimidin-2-yl)amino)piperidin-1-yl)sulfonyl)phenyl)piperidin-4-yl)methyl)piperazin-1-yl)-1H-indazol-3-yl)dihydropyrimidine-2,4(1H,3H)-dione], the IC50 was in the range of 500 to 2500 nM.

As for `COc1cnc(NC2CCN(S(=O)(=O)c3cccc(CN4CCC(c5ccc6c(N7CCC(=O)NC7=O)nn(C)c6c5)CC4)c3)CC2)nc1` [Example 57, 1-(6-(1-(3-((4-((5-methoxypyrimidin-2-yl)amino)piperidin-1-yl)sulfonyl)benzyl)-piperidin-4-yl)-1-methyl-1H-indazol-3-yl)dihydropyrimidine-2,4(1H,3H)-dione], the IC50 was 500 to 2500 nM.

Turning to `Cn1nc(N2CCC(=O)NC2=O)c2ccc(C3CCN(C[C@H]4CCN(c5cccc(S(=O)(=O)N6CCC(Nc7ncc(Cl)cn7)CC6)c5)C4)CC3)cc21` [Example 144, (R)-1-(6-(1-((1-(3-((4-((5-chloropyrimidin-2-yl)amino)piperidin-1-yl)sulfonyl)phenyl)-pyrrolidin-3-yl)methyl)piperidin-4-yl)-1-methyl-1H-indazol-3-yl)dihydropyrimidine-2,4(1H,3H)-dione], the IC50 is 100 to 500 nM.

For `Cn1nc(N2CCC(=O)NC2=O)c2ccc(C3CN(Cc4cccc(S(=O)(=O)N5CCC(Nc6ncc(C(F)(F)F)cn6)CC5)c4)C3)cc21` [Example 49, 1-(1-methyl-6-(1-(3-((4-((5-(trifluoro-methyl)pyrimidin-2-yl)amino)piperidin-1-yl)sulfonyl)benzyl)azetidin-3-yl)-1H-indazol-3-yl)dihydropyrimidine-2,4(1H,3H)-dione], the IC50 is 500 to 2500 nM.

For the compound `Cn1nc(N2CCC(=O)NC2=O)c2ccc(C3CCN(CC4CCN(c5cc(S(=O)(=O)N6CCC(Nc7ncc(Cl)cn7)CC6)ccc5F)CC4)CC3)cc21` [Example 140, 1-(6-(1-((1-(5-((4-((5-chloropyrimidin-2-yl)amino)piperidin-1-yl)sulfonyl)-2-fluorophenyl)piperidin-4-yl)methyl)-piperidin-4-yl)-1-methyl-1H-indazol-3-yl)dihydropyrimidine-2,4(1H,3H)-dione], the IC50 lay in the range of 1 to 100 nM.

Take `O=C1CCC(N2Cc3cc(C4CN(Cc5cccc(S(=O)(=O)N6CCC(Nc7ncc(C(F)(F)F)cn7)CC6)c5)C4)ccc3C2=O)C(=O)N1` (stereo not shown) [Example 48, 3-(1-oxo-5-(1-(3-((4-((5-(trifluoromethyl)-pyrimidin-2-yl)amino)piperidin-1-yl)sulfonyl)benzyl)azetidin-3-yl)isoindolin-2-yl)piperidine-2,6-dione]: the IC50 lay in the range of 100 to 500 nM.

In the case of `Cn1nc(N2CCC(=O)NC2=O)c2ccc(C3CCN(CC4CCN(c5cccc(S(=O)(=O)N6CC7CCC(C6)C7Nc6ncc(Cl)cn6)c5)CC4)CC3)cc21` (racemic) [Example 229, Rac-1-(6-(1-((1-(3-(((1R,5S,8s)-8-((5-chloropyrimidin-2-yl)amino)-3-azabicyclo[3.2.1]octan-3-yl)sulfonyl)phenyl)piperidin-4-yl)methyl)piperidin-4-yl)-1-methyl-1H-indazol-3-yl)dihydropyrimidine-2,4(1H,3H)-dione], the IC50 is > 2500 nM.

As for `Cn1nc(N2CCC(=O)NC2=O)c2ccc(C3CCN(C[C@@H]4CCCCN4c4cccc(S(=O)(=O)N5CCC(Nc6ncc(OC(F)F)cn6)CC5)c4)CC3)cc21` [Example 261, (S)-1-(6-(1-((1-(3-((4-((5-(difluoromethoxy)pyrimidin-2-yl)amino)piperidin-1-yl)sulfonyl)phenyl)piperidin-2-yl)methyl)piperidin-4-yl)-1-methyl-1H-indazol-3-yl)dihydropyrimidine-2,4(1H,3H)-dione], the IC50 lay in the range of 100 to 500 nM.

`Cc1cnc(NC2CCN(S(=O)(=O)c3cccc(CN4CCC(c5ccc6c(N7CCC(=O)NC7=O)nn(C)c6c5)CC4)c3)CC2)nc1` [Example 60, 1-(1-methyl-6-(1-(3-((4-((5-methyl-pyrimidin-2-yl)amino)piperidin-1-yl)sulfonyl)benzyl)piperidin-4-yl)-1H-indazol-3-yl)dihydropyrimidine-2,4(1H,3H)-dione]: the IC50 was 500 to 2500 nM.
